Test results taken from US6841661B2, “Glycopeptide antibacterial compounds, compositions containing same and methods of using same” (Princeton Univerisity, priority 1999, dated 2005).

What was measured:
[1] = tested on: E. faecium CL 5053 (VanA); experiment: microbe, parasite or virus in culture; format: cell-based; set-up: CL5053 (in vitro testing): unit not given here; conditions: Tables 7 and 8; unit not given
From the text: (§1) National Committee for Clinical Laboratory Standards (NCCLS) guidelines [Methods for Dilution Antimicrobial Susceptibility Tests for Bacteria that Grow Aerobically-Fourth Edition; Approved Standard (NCCLS Document M7-A4, January 1997)] are used to establish the assay, although variations are made to optimize the published method according to the specific needs of the present investigation.
(§2) The test panel currently includes eight enterococci and 13 staphylococci, which are selected based upon their antibiotic susceptibility profiles. The methicillin-sensitive Staphylococcus aureus (MSSA) strain MB2985 (Smith isolate) is used to assesses the potential for serum protein binding of the compounds. The paired Gram-negative strains ASP #49 (envA-) and ASP #50 (envA+) (M. Salvatore/N. Lee) are included to judge membrane effects. Table 3 presents a detailed description of the strains included in the panel, including some of the sources of the strains of bacteria.
(§3) The glycopeptide antibiotic teicoplanin is included whenever possible.
(§4) TSB, containing 10% HS* for vancomycin intermediate S. aurcus/methicillin-resistant S. aureus (VISA/MRSA) strains, is inoculated from an appropriate source (frozen broth or agar slant) and grown approximately 17 hr at 35° C. with shaking at 220 rpm. Cultures are grown in tubes with a volume of 5 ml for enterococci and 2 ml for all other strains.
(§5) Four milliliter (4 ml) overnight culture is added to 36 ml physiological saline to obtain tenfold dilutions (enterococci). Overnight culture (0.4 ml) is added to 39.6 ml saline to obtain 100-fold dilutions (all strains except enterococci). Diluted cultures are maintained on ice until time of inoculation of test plates.
(§6) The number of CFU/mL is determined on BHI agar plates, although this is not done routinely because titers of overnight cultures are relatively constant. The test media include: • BHI for enterococci and VISA/MRSA; • MH II (i.e., cation-adjusted Mueller-Hinton broth) for MRS, MSS and E. coli.; • MH II+HSA for MSSA is prepared as follows: • a. 2×MHII+86mg/ml HSA • b. Dissolve 4.3 g HSA in 50 ml autoclaved 2x MH II. • c. pH to 7.0 by adding 2M MOPS, sodium. • d. Filter sterilize using 0.22 μm Coming cellulose acetate filter, used because of reported low protein binding. • e. 1×MH II+43 mg/ml HSA • f. Dilute the 2×medium twofold and filter as above. 5.8.6. Preparation of Test Plates
(§7) Using a Denley liquid handling system (or similar automatic device), 100 μ1×medium is added to each well in columns 2-12 of a 96-well microtiter dish. Using a multichannel pipettor, 100 μl 2×medium is added to each well in column 1. Plates may be filled on the day prior to assay, wrapped in plastic bags and refrigerated.
(§8) Vancomycin, Schering 29482, and teicoplanin are prepared on a weight per volume basis using 10 mM 3-(N-morpholino)propane-sulfonic acid (MOPS) buffer pH 7. Test compounds are received in solution in appropriate solvent (typically as 1 mg/ml in DMSO) or are dissolved in appropriate solvent prior to further dilution in 10 mM MOPS buffer, ph7. Consistent with NCCLS guidelines, antibiotics are handled aseptically but are not otherwise sterilized.
(§9) 100 μl appropriately diluted antibiotic solution is added to the first well of the designated row of the 96-well microtiter dish and serially diluted by twofold across the row using the Denley liquid handling system. With the aid of a Dynatech NEC 2000 inoculator, each well of the microtiter dish is inoculated with 1.5 μl diluted overnight culture, yielding approximately 1-5×10^6 CFU/ml for enterococci and approximately 3-7×10^5 CFU/ml for all other strains. Dishes are placed in stacks of no more than five, wrapped in plastic bags and incubated at 35° C. • Indication of result(s) type (% INH, IC50, Zone size, etc.) • MIC=minimum inhibitory concentration ps 5.8.9. Interpretation of the Results on the Basis of Activity […]

[2] = tested on: E. faecium CL 5242 (VanA); experiment: microbe, parasite or virus in culture; format: cell-based; set-up: CL5242 (in vitro testing): unit not given here; conditions: Tables 7 and 8; unit not given
From the text: as §1, §2, §3, §4, §5, §6, §7, §8, §9

[3] = tested on: E. faecium CL 4931 (VanA); experiment: microbe, parasite or virus in culture; format: cell-based; set-up: CL4931 (in vitro testing): unit not given here; conditions: Tables 7 and 8; unit not given
From the text: as §1, §2, §3, §4, §5, §6, §7, §8, §9

[4] = tested on: CL 4931, CL 5053, CL 5242 and CL 4877; format: cell-based, E. faecium, E. faecalis; set-up: unit not given here; conditions: mean of CL4931, CL5053, CL5242, CL4877; unit not given
From the text: as §1, §2, §3, §4, §5, §6, §7, §8, §9

[5] = tested on: E. faecalis CL 4877 (VanB); experiment: microbe, parasite or virus in culture; format: cell-based; set-up: CL4877 (in vitro testing): unit not given here; conditions: Tables 7 and 8; unit not given
From the text: as §1, §2, §3, §4, §5, §6, §7, §8, §9

CNC(CC(C)C)C(=O)NC1C(=O)NC(CC(N)=O)C(=O)NC2C(=O)NC3C(=O)NC(C(=O)NC(C(=O)O)c4cc(O)cc(O)c4-c4cc3ccc4O)C(O)c3ccc(c(Cl)c3)Oc3cc2cc(c3OC2OC(CNCC3CCNCC3)C(O)C(O)C2OC2CC(C)(NCc3ccc(OCc4ccc(Cl)c(Cl)c4)cc3)C(O)C(C)O2)Oc2ccc(cc2Cl)C1O (centres unmarked) [Compound 155]
CL5053 (in vitro testing) [1]: 16
CL5242 (in vitro testing) [2]: 4
CL4931 (in vitro testing) [3]: 16
Mean [4]: 9.3
CL4877 (in vitro testing) [5]: 1

CNC(CC(C)C)C(=O)NC1C(=O)NC(CC(N)=O)C(=O)NC2C(=O)NC3C(=O)NC(C(=O)NC(C(=O)O)c4cc(O)cc(O)c4-c4cc3ccc4O)C(O)c3ccc(c(Cl)c3)Oc3cc2cc(c3OC2OC(CNCC3CCCCO3)C(O)C(O)C2OC2CC(C)(NCc3ccc(OCc4ccc(Cl)c(Cl)c4)cc3)C(O)C(C)O2)Oc2ccc(cc2Cl)C1O (centres unmarked) [Compound 156]
CL5053 (in vitro testing) [1]: 16
CL5242 (in vitro testing) [2]: 2
CL4931 (in vitro testing) [3]: 16
Mean [4]: 9.5
CL4877 (in vitro testing) [5]: 4

CNC(CC(C)C)C(=O)NC1C(=O)NC(CC(N)=O)C(=O)NC2C(=O)NC3C(=O)NC(C(=O)NC(C(=O)O)c4cc(O)cc(O)c4-c4cc3ccc4O)C(O)c3ccc(c(Cl)c3)Oc3cc2cc(c3OC2OC(CNCCC#N)C(O)C(O)C2OC2CC(C)(NCc3ccc(OCc4ccc(Cl)c(Cl)c4)cc3)C(O)C(C)O2)Oc2ccc(cc2Cl)C1O (centres unmarked) [Compound 157]
CL5053 (in vitro testing) [1]: 16
CL5242 (in vitro testing) [2]: 4
CL4931 (in vitro testing) [3]: 16
Mean [4]: 10.0
CL4877 (in vitro testing) [5]: 4

CNC(CC(C)C)C(=O)NC1C(=O)NC(CC(N)=O)C(=O)NC2C(=O)NC3C(=O)NC(C(=O)NC(C(=O)O)c4cc(O)cc(O)c4-c4cc3ccc4O)C(O)c3ccc(c(Cl)c3)Oc3cc2cc(c3OC2OC(CNCc3ccc(Cl)c(Cl)c3)C(O)C(O)C2OC2CC(C)(NCc3ccc(OCc4ccc(Cl)c(Cl)c4)cc3)C(O)C(C)O2)Oc2ccc(cc2Cl)C1O (centres unmarked) [Compound 158]
CL5053 (in vitro testing) [1]: 16
CL5242 (in vitro testing) [2]: 4
CL4931 (in vitro testing) [3]: 16
Mean [4]: 10.0
CL4877 (in vitro testing) [5]: 4

CNC(CC(C)C)C(=O)NC1C(=O)NC(CC(N)=O)C(=O)NC2C(=O)NC3C(=O)NC(C(=O)NC(C(=O)O)c4cc(O)cc(O)c4-c4cc3ccc4O)C(O)c3ccc(c(Cl)c3)Oc3cc2cc(c3OC2OC(CNCC(C)C)C(O)C(O)C2OC2CC(C)(NCc3ccc(OCc4ccc(Cl)c(Cl)c4)cc3)C(O)C(C)O2)Oc2ccc(cc2Cl)C1O (centres unmarked) [Compound 159]
CL5053 (in vitro testing) [1]: 16
CL5242 (in vitro testing) [2]: 4
CL4931 (in vitro testing) [3]: 16
Mean [4]: 10.0
CL4877 (in vitro testing) [5]: 4

CNC(CC(C)C)C(=O)NC1C(=O)NC(CC(N)=O)C(=O)NC2C(=O)NC3C(=O)NC(C(=O)NC(C(=O)O)c4cc(O)cc(O)c4-c4cc3ccc4O)C(O)c3ccc(c(Cl)c3)Oc3cc2cc(c3OC2OC(CNCCCN3CCCC3)C(O)C(O)C2OC2CC(C)(NCc3ccc(OCc4ccc(Cl)c(Cl)c4)cc3)C(O)C(C)O2)Oc2ccc(cc2Cl)C1O (centres unmarked) [Compound 160]
CL5053 (in vitro testing) [1]: 16
CL5242 (in vitro testing) [2]: 4
CL4931 (in vitro testing) [3]: 16
Mean [4]: 13.0
CL4877 (in vitro testing) [5]: 16

CNC(CC(C)C)C(=O)NC1C(=O)NC(CC(N)=O)C(=O)NC2C(=O)NC3C(=O)NC(C(=O)NC(C(=O)O)c4cc(O)cc(O)c4-c4cc3ccc4O)C(O)c3ccc(c(Cl)c3)Oc3cc2cc(c3OC2OC(CNCCCN)C(O)C(O)C2OC2CC(C)(NCc3ccc(OCc4ccc(Cl)c(Cl)c4)cc3)C(O)C(C)O2)Oc2ccc(cc2Cl)C1O (centres unmarked) [Compound 161]
CL5053 (in vitro testing) [1]: 16
CL5242 (in vitro testing) [2]: 4
CL4931 (in vitro testing) [3]: 16
Mean [4]: 13.0
CL4877 (in vitro testing) [5]: 16

CNC(CC(C)C)C(=O)NC1C(=O)NC(CC(N)=O)C(=O)NC2C(=O)NC3C(=O)NC(C(=O)NC(C(=O)O)c4cc(O)cc(O)c4-c4cc3ccc4O)C(O)c3ccc(c(Cl)c3)Oc3cc2cc(c3OC2OC(CN3CCCC3)C(O)C(O)C2OC2CC(C)(NCc3ccc(OCc4ccc(Cl)c(Cl)c4)cc3)C(O)C(C)O2)Oc2ccc(cc2Cl)C1O (centres unmarked) [Compound 163]
CL5053 (in vitro testing) [1]: 32
CL5242 (in vitro testing) [2]: 4
CL4931 (in vitro testing) [3]: 16
Mean [4]: 13.5
CL4877 (in vitro testing) [5]: 2

CNC(CC(C)C)C(=O)NC1C(=O)NC(CC(N)=O)C(=O)NC2C(=O)NC3C(=O)NC(C(=O)NC(C(=O)O)c4cc(O)cc(O)c4-c4cc3ccc4O)C(O)c3ccc(c(Cl)c3)Oc3cc2cc(c3OC2OC(CNC3CC3)C(O)C(O)C2OC2CC(C)(NCc3ccc(OCc4ccc(Cl)c(Cl)c4)cc3)C(O)C(C)O2)Oc2ccc(cc2Cl)C1O (centres unmarked) [Compound 165]
CL5053 (in vitro testing) [1]: 16
CL5242 (in vitro testing) [2]: 8
CL4931 (in vitro testing) [3]: 16
Mean [4]: 14.0
CL4877 (in vitro testing) [5]: 16

CNC(CC(C)C)C(=O)NC1C(=O)NC(CC(N)=O)C(=O)NC2C(=O)NC3C(=O)NC(C(=O)NC(C(=O)O)c4cc(O)cc(O)c4-c4cc3ccc4O)C(O)c3ccc(c(Cl)c3)Oc3cc2cc(c3OC2OC(CN3CCC(N(C)C)C3)C(O)C(O)C2OC2CC(C)(NCc3ccc(OCc4ccc(Cl)c(Cl)c4)cc3)C(O)C(C)O2)Oc2ccc(cc2Cl)C1O (centres unmarked) [Compound 166]
CL5053 (in vitro testing) [1]: 16
CL5242 (in vitro testing) [2]: 2
CL4931 (in vitro testing) [3]: 8
Mean [4]: 14.5
CL4877 (in vitro testing) [5]: 32

CNC(CC(C)C)C(=O)NC1C(=O)NC(CC(N)=O)C(=O)NC2C(=O)NC3C(=O)NC(C(=O)NC(C(=O)O)c4cc(O)cc(O)c4-c4cc3ccc4O)C(O)c3ccc(c(Cl)c3)Oc3cc2cc(c3OC2OC(CN3CCNCC3)C(O)C(O)C2OC2CC(C)(NCc3ccc(OCc4ccc(Cl)c(Cl)c4)cc3)C(O)C(C)O2)Oc2ccc(cc2Cl)C1O (centres unmarked) [Compound 167]
CL5053 (in vitro testing) [1]: 16
CL5242 (in vitro testing) [2]: 4
CL4931 (in vitro testing) [3]: 8
Mean [4]: 15.0
CL4877 (in vitro testing) [5]: 32

CNC(CC(C)C)C(=O)NC1C(=O)NC(CC(N)=O)C(=O)NC2C(=O)NC3C(=O)NC(C(=O)NC(C(=O)O)c4cc(O)cc(O)c4-c4cc3ccc4O)C(O)c3ccc(c(Cl)c3)Oc3cc2cc(c3OC2OC(CN3CCCCC3)C(O)C(O)C2OC2CC(C)(NCc3ccc(OCc4ccc(Cl)c(Cl)c4)cc3)C(O)C(C)O2)Oc2ccc(cc2Cl)C1O (centres unmarked) [Compound 168]
CL5053 (in vitro testing) [1]: 16
CL5242 (in vitro testing) [2]: 8
CL4931 (in vitro testing) [3]: 32
Mean [4]: 18.3
CL4877 (in vitro testing) [5]: 1

CNC(CC(C)C)C(=O)NC1C(=O)NC(CC(N)=O)C(=O)NC2C(=O)NC3C(=O)NC(C(=O)NC(C(=O)O)c4cc(O)cc(O)c4-c4cc3ccc4O)C(O)c3ccc(c(Cl)c3)Oc3cc2cc(c3OC2OC(CN3CCOCC3)C(O)C(O)C2OC2CC(C)(NCc3ccc(OCc4ccc(Cl)c(Cl)c4)cc3)C(O)C(C)O2)Oc2ccc(cc2Cl)C1O (centres unmarked) [Compound 169]
CL5053 (in vitro testing) [1]: 32
CL5242 (in vitro testing) [2]: 8
CL4931 (in vitro testing) [3]: 32
Mean [4]: 18.3
CL4877 (in vitro testing) [5]: 1
